Experimental data from PubChem BioAssay AID602210 (Sanford-Burnham Center for Chemical Genomics, 2012).
Active and inactive are the calls of the source. No rule for the calls is given here.

assay: H9c2 cardiomyoblast viability modulators under 2-DG – cell-based, ATPlite luminescence, rat, set 2, myocardial damage modulator project, dose response (AID 602210); settings: H9c2 rat cardiomyoblasts, 2-deoxyglucose-induced death, 2 h

Structure (SMILES) | IC50
CC(C)=NNc1cnnc2ccc([N+](=O)[O-])cc12 | 13.4 µM (inactive)
O=C(CSc1nnc(-c2ccccc2)n1Cc1ccccc1)NNC(=O)c1ccccc1O | > 79 µM (inactive)
COc1ccc(-c2cc(-c3nnc(COC(=O)c4ccncc4)o3)c3ccccc3n2)cc1OC | 18.1 µM (inactive)
COc1ccc(-c2ccc3[nH]c4c(c3c2)CCN2C[C@H]3[C@H](C)ON(C)[C@H]3C[C@@H]42)cc1 | 29.8 µM (inactive)
CC(C)(C)NC(=O)c1cc(NC(=O)c2cccs2)cc(NC(=O)c2cccs2)c1 | 15.7 µM (inactive)
CN(CC1COc2ccccc2O1)c1nc(-c2cccnc2)nc2ccccc12 (stereo not drawn) | 18.9 µM (inactive)
CC(=O)c1ccc(-c2cnc3c(NC=O)cc(-c4ccc(C(=O)NC5CC5)cc4)cn23)cc1 | 6.57 µM
COc1ccc(OCC(O)Cn2c(Nc3cccc(C)c3)nc3c2c(=O)n(C)c(=O)n3C)cc1 (stereo not drawn) | 34 µM (inactive)
Nc1c(C(=O)NC2CC2)c2nc3ccccc3nc2n1-c1ccc2c(c1)OCO2 | > 79 µM (inactive)
COC(=O)/C(=C(O)\C=C\c1ccccc1[N+](=O)[O-])c1nc2ccccc2[nH]1 | 13.5 µM (inactive)
COc1cc(-c2cc(NC(C)=O)c3ncc(-c4ccc(C(C)=O)cc4)n3c2)cc(OC)c1OC | 7.42 µM
CCN(C[C@H]1N[C@@](Cc2ccccc2)(C(=O)OC)[C@H]2C(=O)N(C)C(=O)[C@@H]12)S(=O)(=O)c1ccc(OC)cc1 | > 79 µM (inactive)
COc1ccc(C(=O)Nc2cc(C)nn2-c2nc3ccccc3[nH]2)c(OC)c1 | 16.1 µM (inactive)
COc1cccc(-c2cnc3c(NC(C)=O)cc(-c4cc(OC)c(OC)c(OC)c4)cn23)c1 | > 79 µM (inactive)
COc1ccc(-c2cc(C(=O)NC(C)c3ccccn3)c3ccccc3n2)cc1OC (stereo not drawn) | 13.4 µM (inactive)
Cc1c(C(=O)NCC2COc3ccccc3O2)oc2ccc(S(=O)(=O)N3CCOCC3)cc12 (stereo not drawn) | 5.65 µM
COc1ccc2o/c(=N/NC(=O)c3cccs3)c(C(N)=O)cc2c1 | 21.5 µM (inactive)
O=CNc1cc(-c2ccc(C(=O)NC3CC3)cc2)cn2c(-c3ccccc3)cnc12 | 16.1 µM (inactive)
COc1cc(OC)cc(C(=O)Nc2ccc(C(=O)Nc3ccccc3OC)cc2)c1 | 16.6 µM (inactive)
O=C(CCCn1c(SCC(=O)c2ccc(O)c(O)c2)nc2ccccc2c1=O)NCC1CCCO1 (stereo not drawn) | 36.8 µM (inactive)
CC(=O)Nc1cccc(-c2cc(NC(C)=O)c3ncc(-c4ccccc4)n3c2)c1 | 12.2 µM (inactive)

Structure (SMILES) | IC50
O=C1N[C@H](Cc2ccccc2)COC(=O)[C@@H](Cc2ccc(F)cc2)C/C=C\C[C@H]1CC(=O)N(CCO)Cc1ccccc1 | 19.3 µM (inactive)
Cc1cccc(NC(=O)c2nc[nH]c2C(=O)NCC(=O)OCc2ccccc2)c1 | > 79 µM (inactive)
Cc1ccc2[nH]c(=O)c(CN(Cc3ccco3)S(=O)(=O)c3c(C)ccc4nsnc34)cc2c1 | 45.3 µM (inactive)
COc1ccc(NC(=O)c2cc(-c3ccccn3)nc3ccccc23)cc1S(=O)(=O)N(C)C | 5.87 µM
COC(=O)c1cc(NC(=O)c2cc3ccccc3o2)cc(C(=O)OC)c1 | 23.9 µM (inactive)
COc1ccc2occ(C(=O)c3coc4ccc(O)c(CN(C)C)c34)c2c1 | 68 µM (inactive)
CC(C)(C)OC(=O)C[C@H]1C/C=C\C[C@H](CC(=O)N[C@H](CO)Cc2ccccc2)C(=O)N[C@H](Cc2ccccc2)COC1=O | 59.9 µM (inactive)
CC(C)C(=O)N1CCN(c2ccc(NC(=O)COc3ccccc3[N+](=O)[O-])cc2)CC1 | 5.55 µM
COCCCN(Cc1ccco1)C(=O)Cn1ncc2c([nH]c3ccccc32)c1=O | 25.5 µM (inactive)
CCN(CC)C(=O)c1ccc2c3c(cccc13)C(=O)N(CCc1ccc(OC)c(OC)c1)C2=O | 25 µM (inactive)
CC(=O)c1cccc(-c2cnc3c(NC=O)cc(-c4ccc(F)cc4)cn23)c1 | > 79 µM (inactive)
Cc1nc2ccccc2c2c(N)c3ccccc3n12 | 32.1 µM (inactive)
COc1cc(-c2cc(C(=O)Nc3ccccc3N3CCOCC3)c3ccccc3n2)cc(OC)c1OC | 11.2 µM (inactive)
CCCOc1ccc2[nH]c(C(=O)N/N=C/c3cc(OC)c(OC)c(OC)c3)cc2c1 | > 79 µM (inactive)
CCC1(CC)NC(=O)N(CC(=O)OCC(=O)Nc2ccccc2[N+](=O)[O-])C1=O | 21.4 µM (inactive)
CCCNC(=O)c1c(N)n(-c2cccc(OC)c2)c2nc3ccccc3nc12 | 14.9 µM (inactive)
O=C(NCc1ccco1)C(c1ccccc1)N(C(=O)Cc1cccs1)c1ccccc1F (stereo not drawn) | 22.9 µM (inactive)
Cc1ccccc1C(C(=O)NCc1ccccc1)N(Cc1ccco1)C(=O)c1ccccn1 (stereo not drawn) | 45.6 µM (inactive)
COc1cc(/C=C/c2nc3ccccc3c(=O)n2-c2ccccc2O)ccc1O | 27.5 µM (inactive)
COc1cc(C(=O)Nc2ccc(NC(=O)c3cccc(Cl)c3)nc2)cc(OC)c1OC | > 79 µM (inactive)
COc1cc(NC(=O)c2cc3c(C)nc4ccccc4c3o2)cc(OC)c1OC | 11.2 µM (inactive)

Structure (SMILES) | IC50
CCOc1ccc2ccccc2c1C(=O)N[C@@H]1C(=O)N2[C@@H]1SC(C)(C)[C@@H]2C(=O)O | 36.1 µM (inactive)
NC(=O)c1ccc(Nc2nnc(-c3ccc(O)cc3)c3ccccc23)cc1 | 34.2 µM (inactive)
CC(C)(C)OC(=O)NCC12C=CC(O1)C1C(=O)N(Cc3ccccc3)C(=O)C12 (stereo not drawn) | 21.5 µM (inactive)
CC(=O)c1ccc(-c2[nH]c3ccccc3c2CCN2C(=O)c3ccccc3C2=O)cc1 | > 79 µM (inactive)
O=C(Nc1cccnc1)c1sc(Nc2ccccc2)nc1-c1ccccc1 | > 79 µM (inactive)
COc1ccc(C=NNc2nc3c([nH]2)c(=O)n(C)c(=O)n3C)cc1 | 16.6 µM (inactive)
COCCCNC(=O)/C(C#N)=C1\N=C(NC(=O)c2cccs2)c2ccccc21 | > 79 µM (inactive)
Cc1cc(C)c(S(=O)(=O)N2CCN(C(=O)c3cc(=O)[nH]c4ccccc34)CC2)c(C)c1 | 20 µM (inactive)
CC(C)(C)OC(=O)CNC(=O)c1[nH]cnc1C(=O)NCC(=O)OCc1ccccc1 | 4.16 µM
COc1cc(CCNc2ccc3nnc(-c4ccccc4)n3n2)cc(OC)c1OC | 30.6 µM (inactive)
CN1CCc2nc3ccccc3c(C(=O)OCC(=O)N(CCC#N)c3ccccc3)c2C1 | > 79 µM (inactive)
COc1cc(-c2cc(NC=O)c3ncc(-c4ccc(C(C)=O)cc4)n3c2)ccc1O | > 79 µM (inactive)
COc1cccc(-c2cnc3c(NC(C)=O)cc(-c4cccc(NS(C)(=O)=O)c4)cn23)c1 | 15.4 µM (inactive)
COc1ccc2[nH]c(=O)c(CN(Cc3cccnc3)S(=O)(=O)c3ccccc3F)cc2c1 | 2.74 µM
CCOC(=O)C1CCN(C(c2cc3c(C)ccc(C)c3[nH]c2=O)c2nnnn2C2CCCCC2)CC1 (stereo not drawn) | 19.2 µM (inactive)
N#C/C(=C\Nc1ccc2c(c1)OCCO2)c1nc2ccccc2[nH]1 | 17.3 µM (inactive)
COc1cc2c(C#CCCCO)c(-c3ccsc3)oc(=O)c2cc1OC | 5.66 µM
COc1cc(/C=C/c2nc3ccccc3c(=O)n2-c2ccc(O)cc2)ccc1O | > 79 µM (inactive)
COc1cc(C(=O)Nc2cccc(-c3nnc(-c4ccco4)o3)c2)ccc1OC(C)=O | 9.42 µM
COc1cc(/C=N/NC(=O)c2ccncc2)ccc1OC(=O)c1ccccc1Cl | 15.8 µM (inactive)
COc1cc(/C=N/NC(=O)c2ccccc2)ccc1OS(=O)(=O)c1ccccc1 | 13.5 µM (inactive)
